In assay [1] the test system is noise-induced hearing loss. Briefly: Noise-induced hearing loss in mice, intra-tympanic injection, auditory brainstem response (ABR). It counts as in vivo, mouse. To be noted: after noise exposure. An excerpt:
(§1) The study aimed to determine whether Sovateltide (IRL-1620, PMZ-1620); an endothelin-B receptor agonist has otoprotective efficacy and that Sovateltide can ameliorate noise- or aminoglycoside-induced hearing loss in a mouse model system. Animals received either unilateral intra-tympanic Sovateltide at one of two dose concentrations or vehicle control injection. The study conducted unilateral auditory brainstem response (ABR) hearing tests at baseline and again at least 14 days after noise or aminoglycoside exposure as the primary measurement. A gross anatomical examination of treated middle ears was also conducted at necropsy.
(§2) FIG. 4 describes the study design where male and female mice were divided into seven groups, each with ten mice. Groups 1-3 were treated with 112-decibel noise to induce cochlear trauma, whereas groups 4-6 were treated with kanamycin+frusomide to induce aminoglycoside-induced cochlear trauma, and group 7 was kept as the control. In addition, Sovateltide in two different doses was administered in groups 1, 2, 4, and 5, while the vehicle, phosphate-buffered saline, was administered in groups 3, 6, and 7. The auditory brainstem response (ABR) test was performed at baseline and day 14 after noise or aminoglycoside exposure.
[Male & female C57Bl/6 mice used in this study were obtained from Charles River Labs. All study animals (n=69) underwent anesthesia via 87.5 mg/kg (Ketamine)/12.5 mg/kg (Xylazine) IP injection and baseline unilateral left ear ABR testing at 8, 16, and 32 kHz.
Study animals in Groups 1-6 (n=59) underwent cochlear trauma, either via noise (112 dB SPL, 8-16 kHz band, 2-hr duration) exposure while awake, with the goal of producing a moderate chronic hearing loss in all animals or a single injection of subcutaneous kanamycin and intraperitoneal furosemide on Day 0. The noise treatment typically produced moderate hearing losses in the range of 20-50 dB and scattered losses of outer hair cells but little, if any, loss of inner hair cells. […]

For assay [2], the system named is ETB and vascular endothelial growth factor (VEGF) in the cerebrovasculature. To be noted: administration on post-natal day 21; rat brain; cited from earlier work.
Assay [3] relates to aminoglycoside-induced hearing loss. In words: Kanamycin/furosemide (aminoglycoside)-induced hearing loss in mice, intra-tympanic injection, ABR. It counts as in vivo, mouse. Particulars: after kanamycin/furosemide (K/F) exposure; 5 and 15 ug/kg intra-tympanic; 8, 16 and 32 kHz.
Description: as §1, §2
[Male & female C57Bl/6 mice used in this study were obtained from Charles River Labs. […]

In assay [4] the test system is ETB receptors. Briefly: Ki of sovateltide for ETB receptors (literature). The class given is binding. Particulars: ratio of Ki values.
For assay [5], the system named is adult mouse cochlear cells. Briefly: Cultured adult mouse cochlear cells, JC 1 dye mitochondrial membrane potential, confocal imaging. Particulars: 1 ng/ml for 7 days. It counts as cell-based. The procedure: Inner ears comprising cochlear neuroepithelium from adult mice were dissected after anesthetizing with urethane 1.5 g/kg body weight and euthanizing with cervical dislocation. Inner ears were placed in cold saline, and the cochlea was dissected under the dissection microscope. The isolated cochlea was placed in a cold saline solution and chopped finely in a sterile condition inside a culture hood. Minced tissues were transferred to a 15 ml falcon tube and centrifuged at 1000 RPM for 2 min. The supernatant was discarded, and the pellet was submersed in 1× Trypsin EDTA solution (Cat No. R-001-100, GIBCO, MA) and triturated using a 1 ml pipette and cut-tip. The triturated tissue was incubated at 37° C. for 20 min. After 20 min, the digested tissues were vortexed gently and checked for proper digestion of the tissues. The digestion step was repeated by adding the same volume of 1× trypsin EDTA solution and incubating for 10 minutes. After a satisfactory level of digestion, the tissue solution was filtered with a sieve of pore size 40 μm to isolate cell suspension and remove undigested tissues. The cell suspension was collected in a 15 ml falcon tube, and 1 ml of serum-containing cell culture media was added and mixed properly to stop further digestion. The cochlear cell solution was centrifuged at 2000 RPM for 3 min at RT. The cell pellet was resuspended in 8 ml of 10% fetal bovine serum containing culture media and plated in 60 mm tissue culture-treated plastic plates (Alkali Scientific Inc. Fort Lauderdale, FL). The Neurobasal culture media supplemented with B-27 (Gibco, Waltham, MA) was used for culturing cochlear cells. […]
Sovateltide treatment—The cultured mouse cochlear cells were treated with 1 ng/ml sovateltide for 7 days in 2 different conditions—1) Serum-free media and 2) Serum containing media. […] Fluorescence confocal microscopy imaging was done on live cells. […]
JC-1 is a novel cationic carbocyanine dye that accumulates in mitochondria. The dye exists as a monomer at low concentrations and yields green fluorescence, similar to fluorescein. […]

A further assay deals with T1, ETA receptors (Sus scrofa, UniProt Q29010).
T1 sequence (Q29010 21-427): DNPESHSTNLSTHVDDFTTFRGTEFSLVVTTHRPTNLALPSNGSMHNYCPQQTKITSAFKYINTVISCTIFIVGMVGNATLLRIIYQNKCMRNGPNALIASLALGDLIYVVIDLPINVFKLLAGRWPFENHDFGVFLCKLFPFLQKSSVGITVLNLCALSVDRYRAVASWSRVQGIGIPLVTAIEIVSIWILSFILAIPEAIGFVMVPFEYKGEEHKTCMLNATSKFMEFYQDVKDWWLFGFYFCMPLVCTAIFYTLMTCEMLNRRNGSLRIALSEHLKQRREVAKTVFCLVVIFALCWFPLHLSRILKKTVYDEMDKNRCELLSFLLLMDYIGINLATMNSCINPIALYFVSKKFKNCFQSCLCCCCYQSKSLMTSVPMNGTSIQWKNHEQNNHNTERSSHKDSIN
Particulars: cited from earlier work.

The target of assay [6] is ETB receptors. To be noted: cited from earlier work.

“Also recorded” adds a separate entry of the source. Numbered stars: 1 amine (or outer) side, 2 acyl side, 3 side chain; on linkers, the order of the positions; unused ones are H or OH. Ends that are not written are not given here. Suc = O=C(CCC(=O)[*:2])[*:1]

Broadly, the Ki is a dissociation constant, usually derived from enzyme kinetics or from competition with a known ligand. On to “synthetic analog of ET-1, ETB receptor agonist; Suc-Asp-Glu-Glu-Ala-Val-Tyr-Phe-Ala-His-Leu-Asp-Ile-Ile-Trp; CAS #142569-99-1 (Suc-DEEAVYFAHLDIIW) [Sovateltide, N-Succinyl-[Glu9, Ala11,15] endothelin 1]”, for which the “ABR threshold shift at 8 kHz versus vehicle” value in assay [1] (5 ug/kg intra-tympanic, p=0.2513) is listed as “trend of lower threshold shift”; in assay [1] (15 ug/kg intra-tympanic, p=0.0834), “trend of lower threshold shift; also recorded: nearly significant effect”. For the same substance, the “ABR threshold shift from baseline to Day 14 versus vehicle” value in assay [1] (5 and 15 ug/kg intra-tympanic, 8, 16 and 32 kHz) was “not significantly different; also recorded: did not produce statistically reliable differences”; in assay [3], “not significantly different; also recorded: did not produce statistically reliable differences; also recorded: did not have any discernible impact”. The “ETB and VEGF expression in the cerebrovasculature” value in assay [2] is “significant increase”. Besides, the “selectivity for ETB over ETA receptors” value with ETB receptors [4] is listed as ~120,000 times. Also, the “mitochondrial protection (JC 1 mitochondrial membrane potential) versus saline control” value is “reduction in compromised mitochondrial protection” in assay [5] (serum containing media); “more mitochondrial protection than control” in assay [5] (serum-free media); “notable improvement in mitochondrial protection and improved cellular viability” in assay [5] (serum-free media, listed as sovateltide). Moreover, the Ki with ETA receptors is 1900 nM; on ETB receptors [6], 0.016 nM.

Source of the values: patent publication US20240382461A1, “PHARMACEUTICAL COMPOSITION AND METHOD FOR PREVENTION AND TREATMENT OF HEARING LOSS” (PHARMAZZ, INC., priority 2023, published 2024).
